Reference: patent US20120101093A1, “SUBSTITUTED IMIDAZO[1,2-A]PYRIDINE DERIVATIVES, PHARMACEUTICAL COMPOSITIONS, AND METHODS OF USE AS BETA-SECRETASE INHIBITORS” (HIGH POINT PHARMACEUTICALS, LLC, priority 2009, published 2012)

Target: T1, BACE-1 enzyme (Homo sapiens, UniProt P56817)
T1 construct: purchased R & D Systems 931AS
Test: BACE Fluorescence Resonance Energy Transfer (FRET) Assay
Format: biochemical
Settings: pH 4-4.5, 30 min pre-incubation, about 1.5 hours reaction
Procedure, shortened: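 BACE-1 enzyme pre-incubated 30 min with compound in 7.5% DMSO in 50 mM sodium acetate pH 4-4.5, 0.01% CHAPS, 0.0125% Triton X-100, 0.006% EDTA. Rhodamine/quencher peptide substrate added; ~1.5 h at room temperature, fluorescence read at 540/585 nm. IC50 or percent inhibition at one concentration.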

T1 sequence (P56817 46-457 limits assumed): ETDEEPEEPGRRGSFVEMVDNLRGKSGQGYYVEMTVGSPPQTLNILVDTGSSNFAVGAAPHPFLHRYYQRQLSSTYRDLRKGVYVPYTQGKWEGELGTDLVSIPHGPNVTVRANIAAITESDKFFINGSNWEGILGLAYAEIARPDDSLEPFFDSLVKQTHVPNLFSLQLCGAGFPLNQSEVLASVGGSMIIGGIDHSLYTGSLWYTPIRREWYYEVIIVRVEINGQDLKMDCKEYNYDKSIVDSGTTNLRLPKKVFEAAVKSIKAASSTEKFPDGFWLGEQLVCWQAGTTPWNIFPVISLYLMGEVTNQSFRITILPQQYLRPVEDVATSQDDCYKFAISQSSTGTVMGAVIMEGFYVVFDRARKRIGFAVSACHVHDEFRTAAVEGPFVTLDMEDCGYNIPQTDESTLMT

SMILES | IC50 [µM]
COCCNCc1ccn2cc(C(=O)Nc3nc4cc(-c5cccc(C(F)(F)F)c5)ccc4[nH]3)nc2c1 [Example 208, 7-[(2-Methoxy-ethylamino)-methyl]-imidazo[1,2-a]pyridine-2-carboxylic acid [5-(3-trifluoromethyl-phenyl)-1H-benzoimidazol-2-yl]-amide] | 0.23
CN(C)CCNCc1ccn2cc(C(=O)Nc3nc4cc(-c5cccc(C(F)(F)F)c5)ccc4[nH]3)nc2c1 [Example 212, 7-[(2-Dimethylamino-ethylamino)-methyl]-imidazo[1,2-a]pyridine-2-carboxylic acid [5-(3-trifluoromethyl-phenyl)-1H-benzoimidazol-2-yl]-amide] | 0.26
Cn1cc(-c2cccc3nc(C(=O)Nc4nc5cc(-c6cccc(C(F)(F)F)c6)ccc5[nH]4)cn23)cn1 [Example 213, 5-(1-methyl-1H-pyrazol-4-yl)-N-{5-[3-(trifluoromethyl)phenyl]-1H-benzimidazol-2-yl}imidazo[1,2-a]pyridine-2-carboxamide] | 0.26
O=C(Nc1nc2cc(-c3cccc(C(F)(F)F)c3)ccc2[nH]1)c1cn2cccc(-c3ccccc3)c2n1 [Example 216, 8-phenyl-N-{5-[3-(trifluoromethyl)phenyl]-1H-benzimidazol-2-yl}imidazo[1,2-a]pyridine-2-carboxamide] | 0.65
CCCc1cccc2nc(C(=O)Nc3nc4cc(-c5cccc(C(F)(F)F)c5)ccc4[nH]3)cn12 [Example 220, 5-propyl-N-{5-[3-(trifluoromethyl)phenyl]-1H-benzimidazol-2-yl}imidazo[1,2-a]pyridine-2-carboxamide] | 0.38
CCCc1cccc2nc(C(=O)Nc3nc4cc(-c5cccc(OC(F)(F)F)c5)ccc4[nH]3)cn12 [Example 221, 5-propyl-N-{5-[3-(trifluoromethoxy)phenyl]-1H-benzimidazol-2-yl}imidazo[1,2-a]pyridine-2-carboxamide] | 0.28
CC(C)c1cccc2nc(C(=O)Nc3nc4cc(-c5cccc(C(F)(F)F)c5)ccc4[nH]3)cn12 [Example 222, 5-(propan-2-yl)-N-{5-[3-(trifluoromethyl)phenyl]-1H-benzimidazol-2-yl}imidazo[1,2-a]pyridine-2-carboxamide] | 1.23
CCc1cccc2nc(C(=O)Nc3nc4cc(-c5cccc(OC(F)(F)F)c5)ccc4[nH]3)cn12 [Example 224, 5-ethyl-N-{5-[3-(trifluoromethoxy)phenyl]-1H-benzimidazol-2-yl}imidazo[1,2-a]pyridine-2-carboxamide] | 0.55
O=C(Nc1nc2cc(-c3cc(F)cc(Cl)c3)ccc2[nH]1)c1cn2c(C(=O)NC3CCNCC3)cccc2n1 [Example 225, Imidazo[1,2-a]pyridine-2,5-dicarboxylic acid 2-{[5-(3-chloro-5-fluoro-phenyl)-1H-benzoimidazol-2-yl]-amide} 5-piperidin-4-ylamide] | 0.48
CNC(=O)c1cccn2cc(C(=O)Nc3nc4cc(-c5cccc(C(F)(F)F)c5)ccc4[nH]3)nc12 [Example 229, Imidazo[1,2-a]pyridine-2,8-dicarboxylic acid 8-methylamide 2-{[5-(3-trifluoromethyl-phenyl)-1H-benzoimidazol-2-yl]-amide}] | 0.16
CN(C)C(=O)c1cccn2cc(C(=O)Nc3nc4cc(-c5cccc(C(F)(F)F)c5)ccc4[nH]3)nc12 [Example 230, Imidazo[1,2-a]pyridine-2,8-dicarboxylic acid 8-dimethylamide 2-{[5-(3-trifluoromethyl-phenyl)-1H-benzoimidazol-2-yl]-amide}] | 0.28
COCCNC(=O)c1cccn2cc(C(=O)Nc3nc4cc(-c5cccc(C(F)(F)F)c5)ccc4[nH]3)nc12 [Example 231, Imidazo[1,2-a]pyridine-2,8-dicarboxylic acid 8-[(2-methoxy-ethyl)-amide] 2-{[5-(3-trifluoromethyl-phenyl)-1H-benzoimidazol-2-yl]-amide}] | 0.31
O=C(Nc1nc2cc(-c3cccc(Cl)c3)ccc2[nH]1)c1cn2cc(N3CC[C@H](O)C3)ccc2n1 [Example 232, 6-((S)-3-Hydroxy-pyrrolidin-1-yl)-imidazo[1,2-a]pyridine-2-carboxylic acid [5-(3-chloro-phenyl)-1H-benzoimidazol-2-yl]-amide] | 0.14
CO[C@H]1CCN(c2ccc3nc(C(=O)Nc4nc5cc(-c6cccc(Cl)c6)ccc5[nH]4)cn3c2)C1 [Example 233, 6-((S)-3-Methoxy-pyrrolidin-1-yl)-imidazo[1,2-a]pyridine-2-carboxylic acid [5-(3-chloro-phenyl)-1H-benzoimidazol-2-yl]-amide] | 0.41
O=C(Nc1nc2cc(-c3cccc(Cl)c3)ccc2[nH]1)c1cn2cc(OCCOC3CCCCO3)ccc2n1 (stereo not drawn) [Example 234, 6-[2-(Tetrahydro-pyran-2-yloxy)-ethoxy]-imidazo[1,2-a]pyridine-2-carboxylic acid [5-(3-chloro-phenyl)-1H-benzoimidazol-2-yl]-amide] | 0.35
CO[C@@H]1CCN(c2ccc3nc(C(=O)Nc4nc5cc(-c6cc(F)cc(Cl)c6)ccc5[nH]4)cn3c2C)C1 [Example 236, 6-((R)-3-Methoxy-pyrrolidin-1-yl)-5-methyl-imidazo[1,2-a]pyridine-2-carboxylic acid [5-(3-chloro-5-fluoro-phenyl)-1H-benzoimidazol-2-yl]-amide] | 0.25
Cc1c(C#CCO)ccc2nc(C(=O)Nc3nc4cc(-c5cccc(C(F)(F)F)c5)ccc4[nH]3)cn12 [Example 238, 6-(3-Hydroxy-prop-1-ynyl)-5-methyl-imidazo[1,2-a]pyridine-2-carboxylic acid [5-(3-trifluoromethyl-phenyl)-1H-benzoimidazol-2-yl]-amide] | 0.22
COCCn1c(NC(=O)c2cn3c(C)cccc3n2)nc2ccc(-c3cccc(C(F)(F)F)c3)cc21 [Example 239, 5-Methyl-imidazo[1,2-a]pyridine-2-carboxylic acid [1-(2-methoxy-ethyl)-6-(3-trifluoromethyl-phenyl)-1H-benzoimidazol-2-yl]-amide] | 0.7
Cc1cccc2nc(C(=O)Nc3nc4cc(-c5ccc(Cl)c(C(F)(F)F)c5)ccc4n3CCN3CCOCC3)cn12 [Example 243, 5-Methyl-imidazo[1,2-a]pyridine-2-carboxylic acid [5-(4-chloro-3-trifluoromethyl-phenyl)-1-(2-morpholin-4-yl-ethyl)-1H-benzoimidazol-2-yl]-amide] | 6.9
O=C(O)c1ccn2cc(C(=O)Nc3nc4cc(-c5cc(F)cc(Cl)c5)ccc4[nH]3)nc2c1 [Example 244, 2-[5-(3-Chloro-5-fluoro-phenyl)-1H-benzoimidazol-2-ylcarbamoyl]-imidazo[1,2-a]pyridine-7-carboxylic acid] | 3.64

Further compounds by falling IC50, results first:

IC50 [µM] | SMILES
1.5 | Cc1cccn2cc(C(=O)Nc3nc4cc(-c5cccc(C(F)(F)F)c5)ccc4n3C)nc12 [Example 241, 8-Methyl-imidazo[1,2-a]pyridine-2-carboxylic acid [1-methyl-5-(3-trifluoromethyl-phenyl)-1H-benzoimidazol-2-yl]-amide]
0.83 | CC(C)c1cccc2nc(C(=O)Nc3nc4cc(-c5cccc(OC(F)(F)F)c5)ccc4[nH]3)cn12 [Example 223, 5-(propan-2-yl)-N-{5-[3-(trifluoromethoxy)phenyl]-1H-benzimidazol-2-yl}imidazo[1,2-a]pyridine-2-carboxamide]
0.69 | Cc1c(N2CC[C@H](O)C2)ccc2nc(C(=O)Nc3nc4cc(-c5cc(F)cc(Cl)c5)ccc4[nH]3)cn12 [Example 235, 6-((S)-3-Hydroxy-pyrrolidin-1-yl)-5-methyl-imidazo[1,2-a]pyridine-2-carboxylic acid [5-(3-chloro-5-fluoro-phenyl)-1H-benzoimidazol-2-yl]-amide]
0.66 | O=C(Nc1nc2cc(-c3cccc(C(F)(F)F)c3)ccc2[nH]1)c1cn2ccc(CN3CCNCC3)cc2n1 [Example 203, 7-Piperazin-1-ylmethyl-imidazo[1,2-a]pyridine-2-carboxylic acid [5-(3-trifluoromethyl-phenyl)-1H-benzoimidazol-2-yl]-amide]
0.45 | O=C(Nc1nc2cc(-c3cccc(C(F)(F)F)c3)ccc2[nH]1)c1cn2c(C3CCNCC3)cccc2n1 [Example 218, 5-(piperidin-4-yl)-N-{5-[3-(trifluoromethyl)phenyl]-1H-benzimidazol-2-yl}imidazo[1,2-a]pyridine-2-carboxamide]
0.44 | COCCn1c(NC(=O)c2cn3c(C)cccc3n2)nc2cc(-c3ccc(Cl)c(C(F)(F)F)c3)ccc21 [Example 242, 5-Methyl-imidazo[1,2-a]pyridine-2-carboxylic acid [5-(4-chloro-3-trifluoromethyl-phenyl)-1-(2-methoxy-ethyl)-1H-benzoimidazol-2-yl]-amide]
0.24 | CCN(CCO)Cc1ccn2cc(C(=O)Nc3nc4cc(-c5cccc(C(F)(F)F)c5)ccc4[nH]3)nc2c1 [Example 211, 7-{[Ethyl-(2-hydroxy-ethyl)-amino]-methyl}-imidazo[1,2-a]pyridine-2-carboxylic acid [5-(3-trifluoromethyl-phenyl)-1H-benzoimidazol-2-yl]-amide]
0.23 | CO[C@H]1CCN(c2ccc3nc(C(=O)Nc4nc5cc(-c6cc(F)cc(Cl)c6)ccc5[nH]4)cn3c2C)C1 [Example 237, 6-((S)-3-Methoxy-pyrrolidin-1-yl)-5-methyl-imidazo[1,2-a]pyridine-2-carboxylic acid [5-(3-chloro-5-fluoro-phenyl)-1H-benzoimidazol-2-yl]-amide]
0.18 | O=C(Nc1nc2cc(-c3cccc(C(F)(F)F)c3)ccc2[nH]1)c1cn2ccc(CNCCN3CCOCC3)cc2n1 [Example 210, 7-[(2-Morpholin-4-yl-ethylamino)-methyl]-imidazo[1,2-a]pyridine-2-carboxylic acid [5-(3-trifluoromethyl-phenyl)-1H-benzoimidazol-2-yl]-amide]
0.15 | O=C(Nc1nc2cc(-c3cccc(C(F)(F)F)c3)ccc2[nH]1)c1cn2c(-c3ccncc3)cccc2n1 [Example 217, 5-(pyridin-4-yl)-N-{5-[3-(trifluoromethyl)phenyl]-1H-benzimidazol-2-yl}imidazo[1,2-a]pyridine-2-carboxamide]
